# Measured values reported in patent publication US10487093B2, “Heterocyclic compounds, in particular 2-oxo-4,4,5,5,6,6,7,7-octahydrobenzoxazole derivatives, and their use as antibacterial compounds” (priority 2016, dated 2019).
# How the values were obtained:
# [1] = system: Enterobacter cloacae NCTC 13406; assay: MIC, broth microdilution (CLSI) versus planktonic bacteria; assay type: cell-based; settings: NCTC13406; Enterobacter cloacae NCTC 13406; 16-20 h; mode of three independent experiments; read-out: MIC, Ecl NCTC 13406
# [2] = system: E. coli NCTC 13476; assay: as above; assay type: cell-based; settings: NCTC13476; Escherichia coli NCTC 13476; 16-20 h; mode of three independent experiments; read-out: MIC, Ec NCTC 13476
# [3] = system: E. coli MG1655 S83L; assay type: cell-based, Escherichia coli; settings: compared to the isogenic parent strain E. coli MG1655; S83L mutation on DNA gyrase subunit GyrA
# [4] = system: Acinetobacter baumannii ATCC 19606; assay: MIC, broth microdilution (CLSI) versus planktonic bacteria; assay type: cell-based; settings: ATCC19606; Acinetobacter baumannii ATCC 19606; 16-20 h; mode of three independent experiments; read-out: MIC, Ab ATCC 19606
# [5] = system: Escherichia coli ATCC 25922; assay: as above; assay type: cell-based; settings: ATCC25922; Escherichia coli ATCC 25922; 16-20 h; mode of three independent experiments; read-out: MIC, Ec ATCC 25922
# [6] = system: E. coli MG1655 D87G; assay type: cell-based, Escherichia coli; settings: compared to the isogenic parent strain E. coli MG1655; D87G mutation on DNA gyrase subunit GyrA
# [7] = system: Acinetobacter baumannii NCTC 13420; assay: MIC, broth microdilution (CLSI) versus planktonic bacteria; assay type: cell-based; settings: NCTC13420; Acinetobacter baumannii NCTC 13420; 16-20 h; mode of three independent experiments; read-out: MIC, Ab NCTC 13420
# [8] = system: E. coli ATCC BAA-2452; assay: as above; assay type: cell-based; settings: Escherichia coli ATCC BAA-2452; 16-20 h; mode of three independent experiments; read-out: MIC, Ec ATCC BAA 2452
# [9] = system: E. coli MG1655; assay: as above; assay type: cell-based, Escherichia coli; settings: Escherichia coli, MG1655, read-out: MIC, Ec MG1655 WT
# [10] = system: Pseudomonas aeruginosa ATCC 27853; assay: as above; assay type: cell-based; settings: ATCC27853; Pseudomonas aeruginosa ATCC 27853; 16-20 h; mode of three independent experiments; read-out: MIC, Pa ATCC 27853
# [11] = system: Streptococcus pneumoniae ATCC 49619; assay: as above; assay type: cell-based; settings: ATCC49619; Streptococcus pneumoniae ATCC 49619; 16-20 h; mode of three independent experiments; read-out: MIC, Sp ATCC 49619
# [12] = system: human hepatic cell line (HepG2 ATCC HB-8065); assay: Human cell viability assay (CellTiter-Glo); settings: Homo sapiens, HepG2, 24 h, read-out: IC50 (μg/mL) HepG2
Compound,MIC [1] [µg/mL],MIC [2] [µg/mL],"Fold increase in MIC, E. coli MG1655 S83L [3] [fold]",MIC [4] [µg/mL],MIC [5] [µg/mL],"Fold increase in MIC, E. coli MG1655 D87G [6] [fold]",MIC [7] [µg/mL],MIC [8] [µg/mL],MIC [9] [µg/mL],MIC [10] [µg/mL],MIC [11] [µg/mL],IC50 [12] [µg/mL]
"COc1ccc2ncc(=O)n(CCN[C@@H]3CC[C@@H]4[C@@H](C3)OC(=O)N4c3ccc4c(n3)NC(=O)CO4)c2c1 [Compound 21, 1-(2-{[(3aR,6R,7aR)-2-oxo-3-{3-oxo-2H,3H,4H-pyrido[3,2-b][1,4]oxazin-6-yl}-octahydro-1,3-benzoxazol-6-yl]amino}ethyl)-7-methoxy-1,2-dihydroquinoxalin-2-one]",< 1,< 1,1,< 1,< 1,2,< 1,< 1,< 1,< 1,1 to 10,> 100
"Cc1ccc2ncc(=O)n(CCN[C@H]3CC[C@H]4[C@@H](C3)OC(=O)N4c3ccc4c(n3)NC(=O)CO4)c2c1 [Compound 27, 1-(2-{[(3aS,6S,7aR)-2-oxo-3-{3-oxo-2H,3H,4H-pyrido[3,2-b][1,4]oxazin-6-yl}-octahydro-1,3-benzoxazol-6-yl]amino}ethyl)-7-methyl-1,2-dihydroquinoxalin-2-one]",1 to 10,,,,< 1,,1 to 10,,,1 to 10,< 1,> 100
